Each structure is given as a SMILES string. Values after ≈ are worked out from the molar mass of the structure shown.

The conditions of the first series: 20 °C.
Regarding `CCOC(=O)CC(C)C`, the solubility worked out at 18.5 mM (≈ 2410 µg/mL).

Regarding `CCCC(=O)OCC`, the solubility worked out at 47.3 mM (≈ 5500 µg/mL).

The compound `CCCCOC(=O)CCCCCCCCC(=O)OCCCC` gave a solubility of 0.127 mM (≈ 40 µg/mL).

For `COC(=O)c1ccccc1`, the solubility was 15.4 mM (≈ 2100 µg/mL).

For `C=COC(C)=O`, the solubility came to 232 mM (≈ 20000 µg/mL).

`CC(=O)OC(C)CC(C)C` (stereo not drawn) had a solubility of 9.01 mM (≈ 1300 µg/mL).

For `CCCCS`, the solubility was determined as 6.62 mM (≈ 597 µg/mL).

For `CCCCC(CC)CCl` (stereo not drawn), the solubility came to 0.673 mM (≈ 100 µg/mL).

In turn, `C=COCCCC` had a solubility of 30 mM (≈ 3000 µg/mL).

`CCCCCCCCC(=O)O` registered a solubility of 1.79 mM (≈ 284 µg/mL).

In turn, `CCCCCOC(C)=O` yielded a solubility of 13.2 mM (≈ 1710 µg/mL).

For the compound `C=C(C)C(=O)O`, the solubility came to 1030 mM (≈ 89000 µg/mL).

`CCCCC(CC)CN` (stereo not drawn) had a solubility of 19.3 mM (≈ 2500 µg/mL).

Staying with this series, now noted: 25 °C.
`CCOCC` gave a solubility of 815 mM (≈ 60400 µg/mL).

Regarding `CC(C)CCOCCC(C)C`, the solubility was 1.26 mM (≈ 200 µg/mL).

For `FC(F)(F)Cl`, the solubility was 0.862 mM (≈ 90 µg/mL).

As to `CCCCCl`, the solubility was 11.9 mM (≈ 1100 µg/mL).

The compound `CC[Si](CC)(CC)CC` came in with a solubility of 0.00225 mM (≈ 0.325 µg/mL).

As for `C[Si](C)(C)C`, the solubility was found to be 0.222 mM (≈ 19.6 µg/mL).

For the compound `CCCCCC(C)=O`, the solubility turned out to be 37.7 mM (≈ 4300 µg/mL).

Compound `CCC(C)C` came in with a solubility of 0.676 mM (≈ 48.8 µg/mL).

As to `CCCOCCC`, the solubility turned out to be 48 mM (≈ 4900 µg/mL).

`CCCCOCCCC` displayed a solubility of 2.3 mM (≈ 300 µg/mL).

For `C=CC(=O)OC`, the solubility is 574 mM (≈ 49400 µg/mL).

For the compound `FC(Cl)(Cl)C(F)(Cl)Cl`, the solubility is 0.617 mM (≈ 126 µg/mL).

Compound `N#Cc1ccccc1` registered a solubility of 19.4 mM (≈ 2000 µg/mL).

In turn, `CCCCCCCCC` came in with a solubility of 0.00172 mM (≈ 0.22 µg/mL).

Turning to `CC1CCCO1` (stereo not drawn), the solubility was found to be 1810 mM (≈ 156000 µg/mL).

Turning to `FC(F)(Cl)C(F)(F)Cl`, the solubility turned out to be 0.761 mM (≈ 130 µg/mL).

The compound `CC(=O)OCC(COC(C)=O)OC(C)=O` returned a solubility of 266 mM (≈ 58000 µg/mL).

In turn, `CCCCOC(=O)/C=C\C(=O)OCCCC` had a solubility of 2.19 mM (≈ 500 µg/mL).

The compound `CCCC(C)C` gave a solubility of 0.172 mM (≈ 14.8 µg/mL).

Regarding `COC(=O)/C=C\C(=O)OC`, the solubility is 555 mM (≈ 80000 µg/mL).

`CCC[N+](=O)[O-]` showed a solubility of 168 mM (≈ 15000 µg/mL).

Compound `CCCCC` had a solubility of 0.527 mM (≈ 38 µg/mL).

`CC(C)CC(C)O` (stereo not drawn): the solubility worked out at 161 mM (≈ 16400 µg/mL).

The series is the same for the next values; noted with them: 30 °C.
`Cc1ccc(Cl)c(Cl)c1` returned a solubility of 0.161 mM (≈ 26 µg/mL).

The compound `CCOC(=O)/C=C\C(=O)OCC` returned a solubility of 81.3 mM (≈ 14000 µg/mL).

The record behind these values is the OPERA property sets (Mansouri et al. 2018).
